System: immunoresponse
Assay: not given
Conditions: Japanese Patent Laid-Open Publication No. 117435/1977; cited from earlier work

Row | SMILES | effect to immunoresponse such as delayed hypersthesia | in vivo defense mechanism
1 | CC(C)C[C@H](NC(=O)[C@@H](O)[C@H](N)Cc1ccccc1)C(=O)O [bestatin, (2S,3R)-3-amino-2-hydroxy-4-phenylbutanoyl-(S)-leucine] | increasing effect to immunoresponse such as delayed hypersthesia | activate in vivo defense mechanism

System: cancer
Assay: not given
Conditions: Japanese Patent Laid-Open Publication No. 117435/1977; cited from earlier work

Row | SMILES | effects for cancer
2 | CC(C)C[C@H](NC(=O)[C@@H](O)[C@H](N)Cc1ccccc1)C(=O)O [bestatin, (2S,3R)-3-amino-2-hydroxy-4-phenylbutanoyl-(S)-leucine] | inhibitive effects for cancer

Molecular target: T1, aminopeptidase B (Rattus norvegicus, UniProt O09175)
T1 construct: an aminopeptidase B solution purified by the same enzyme purification process as in the process by Hopsu et al; from tissue
T1 sequence (O09175 1-650): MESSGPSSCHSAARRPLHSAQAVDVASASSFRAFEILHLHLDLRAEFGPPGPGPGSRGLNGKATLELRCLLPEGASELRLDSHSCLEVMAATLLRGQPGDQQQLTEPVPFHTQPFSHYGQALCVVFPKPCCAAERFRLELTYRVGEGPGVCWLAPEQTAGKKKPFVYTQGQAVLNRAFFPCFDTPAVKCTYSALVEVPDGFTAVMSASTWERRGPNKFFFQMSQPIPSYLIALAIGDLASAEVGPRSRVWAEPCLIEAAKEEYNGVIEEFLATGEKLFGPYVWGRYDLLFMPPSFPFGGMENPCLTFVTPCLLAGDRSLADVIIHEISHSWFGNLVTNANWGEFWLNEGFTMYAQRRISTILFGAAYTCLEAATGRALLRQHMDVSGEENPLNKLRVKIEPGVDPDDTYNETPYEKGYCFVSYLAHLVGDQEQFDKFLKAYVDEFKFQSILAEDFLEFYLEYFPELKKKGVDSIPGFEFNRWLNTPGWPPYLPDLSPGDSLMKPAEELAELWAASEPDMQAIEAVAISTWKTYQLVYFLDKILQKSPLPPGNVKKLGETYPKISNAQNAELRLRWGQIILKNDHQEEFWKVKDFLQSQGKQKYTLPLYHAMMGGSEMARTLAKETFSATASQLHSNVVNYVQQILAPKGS
Assay: Inhibitory Activity to Aminopeptidase B
Format: biochemical
Conditions: pH 7.0, 37° C., 30 minutes, substrate arginine-β-naphthylamide; read-out: IC50 (50% inhibitory ratio) (converted)
Description: Measurement for the inhibitory activity to aminopeptisase B was conducted by the method reported by Hopsu et al. while somewhat modifying the process [V. K. Hopsu, K. K. Makinen, G. G. Glenner; Archives of Biochemistry and Biophysics, 114, 557 (1966)].
A mixed solution (pH 7.0) prepared by adding 1.0 ml of a 0.1 M tris-hydrochloric acid buffer solution and 0.7 ml of a solution containing a test specimen to 0.3 ml of 0.1 mM arginine-β-naphthylamide was heated at 37° C. for 4 minutes. Thereafter, 0.2 ml of an aminopeptidase B solution purified by the same enzyme purification process as in the process by Hopsu et al. using Sephadex G-100 (registered Trademark) was added and reacted at 37° C. for 30 minutes. Then, 0.6 ml of a 1.0 M acetic acid buffer solution (pH 4.2) containing Garnet GBC (o-aminoazotoluenediazonium salt) at 1.0 mg/ml concentration and containing Tween 20 (registered trademark) at 1.0% concentration was further added and left for 15 minutes at room temperature, after which absorption ratio (a) at 530 nm was measured. The absorption ratio (b) for the blind solution using only the buffer solution containing no specimen was simultaneously mesured, and the inhibitory ratio to aminopeptidase B was calculated as (b-a)/b×100.
Inhibitory ratios for each of the specimens at several concentrations were determined by the above test method, from which 50% inhibitory ratios (IC50) were deduced.

Row | SMILES | IC50 [nM]
3 | CC(C)C[C@H](NC(=O)C(O)C(N)Cc1ccc(-c2ccccc2)cc1)C(=O)O (stereo partly drawn) [No. 6, Threo-(2RS)-3-amino-2-hydroxy-4-(4-phenylphenyl)butanoyl-(S)-leucine] | 9360
4 | COc1ccc(C[C@@H](N)[C@H](O)C(=O)N[C@@H](CC(C)C)C(=O)O)cc1 [No. 1, (2S,3R)-3-amino-2-hydroxy-4-(4-methoxyphenyl)butanoyl-(S)-leucine] | 17.7
5 | COc1cccc(CC(N)C(O)C(=O)N[C@@H](CC(C)C)C(=O)O)c1 (stereo partly drawn) [No. 3, Threo-(2RS)-3-amino-2-hydroxy-4-(3-methoxyphenyl)butanoyl-(S)-leucine] | 118
6 | COc1ccc(C[C@@H](N)[C@H](O)C(=O)N[C@H](C(=O)O)C(C)C)cc1 [No. 14, (2S,3R)-3-amino-2-hydroxy-4-(4-methoxyphenyl)butanoyl-(S)-valine] | 216
7 | CC(C)C[C@H](NC(=O)C(O)C(N)Cc1ccc(C(C)C)cc1)C(=O)O (stereo partly drawn) [compound 7] | 342
8 | CC(C)Cc1ccc(CC(N)C(O)C(=O)N[C@@H](CC(C)C)C(=O)O)cc1 (stereo partly drawn) [No. 8, Threo-(2RS)-3-amino-2-hydroxy-4-(4-iso-butylphenyl)butanoyl-(S)-leucine] | 7680
9 | CC[C@H](C)[C@H](NC(=O)C(O)C(N)Cc1ccc2ccccc2c1)C(=O)O (stereo partly drawn) [No. 13, Threo-(2RS)-3-amino-2-hydroxy-4-(2-naphthyl)butanoyl-(S)-isoleucine] | 83.7
10 | CC(C)COc1ccc(CC(N)C(O)C(=O)N[C@@H](CC(C)C)C(=O)O)cc1 (stereo partly drawn) [No. 11, Threo-(2RS)-3-amino-2-hydroxy-4-(4-iso-butoxyphenyl)butanoyl-(S)-leucine] | 11800
11 | CC(C)C[C@H](NC(=O)C(O)C(N)Cc1ccc(OC(C)C)cc1)C(=O)O (stereo partly drawn) [No. 10, Threo-(2RS)-3-amino-2-hydroxy-4-(4-iso-propoxyphenyl)butanoyl-(S)-leucine] | 18600

The remaining lines, values ahead:

Row | IC50 [nM] | SMILES
12 | 91.9 | CC(C)C[C@H](NC(=O)C(O)C(N)Cc1ccc(F)cc1)C(=O)O (stereo partly drawn) [No. 12, Threo-(2RS)-3-amino-2-hydroxy-4-(4-fluorophenyl)butanoyl-(S)-leucine]
13 | 279 | CC(C)C[C@H](NC(=O)C(O)C(N)Cc1ccc2ccccc2c1)C(=O)O (stereo partly drawn) [No. 5, Threo-(2RS)-3-amino-2-hydroxy-4-(2-naphthyl)butanoyl-(S)-leucine]
14 | 4180 | CC(C)C[C@H](NC(=O)C(O)C(N)Cc1cccc2ccccc12)C(=O)O (stereo partly drawn) [No. 4, Threo-(2RS)-3-amino-2-hydroxy-4-(1-naphthyl)butanoyl-(S)-leucine]
15 | 1630 | CC(C)C[C@H](NC(=O)C(O)C(N)Cc1ccccc1O)C(=O)O (stereo partly drawn) [No. 15, Threo-(2RS)-3-amino-2-hydroxy-4-(2-hydroxyphenyl)butanoyl-(S)-leucine]
16 | 8570 | COc1ccccc1CC(N)C(O)C(=O)N[C@@H](CC(C)C)C(=O)O (stereo partly drawn) [No. 2, Threo-(2RS)-3-amino-2-hydroxy-4-(2-methoxyphenyl)butanoyl-(S)-leucine]
17 | 277 | CC(C)C[C@H](NC(=O)C(O)C(N)Cc1cccc(O)c1)C(=O)O (stereo partly drawn) [No. 16, Threo-(2RS)-3-amino-2-hydroxy-4-(3-hydroxyphenyl)butanoyl-(S)-leucine]
18 | 5290 | CC(C)C[C@H](NC(=O)C(O)C(N)Cc1ccc(O)c(O)c1)C(=O)O (stereo partly drawn) [No. 9, Threo-(2RS)-3-amino-2-hydroxy-4-(3,4-dihydroxyphenyl)butanoyl-(S)-leucine]

System: not given
Assay: not given
Conditions: isolated from culture filtrates of Streptomyces olivoreticuli; cited from earlier work

Row | SMILES | toxicity
19 | CC(C)C[C@H](NC(=O)[C@@H](O)[C@H](N)Cc1ccccc1)C(=O)O [bestatin, (2S,3R)-3-amino-2-hydroxy-4-phenylbutanoyl-(S)-leucine] | least toxic

Molecular target: T1, aminopeptidase B
Assay: not given
Conditions: U.S. Pat. No. 4,029,547; cited from earlier work

Row | SMILES | aminopeptidase B inhibitor
20 | CC(C)C[C@H](NC(=O)[C@@H](O)[C@H](N)Cc1ccccc1)C(=O)O [bestatin, (2S,3R)-3-amino-2-hydroxy-4-phenylbutanoyl-(S)-leucine] | aminopeptidase B inhibitor

— patent publication US4281180A, “Process for producing threo-3-amino-2-hydroxybutanoyl-aminoacetic acids, as well as novel intermediated therefor and process for producing them” (Nippon Kayaku Kabushiki Kaisha, priority 1978, dated 1981)
